Experimental data: patent publication US12465594B2 (Brown University, priority 2018, dated 2025)
“Also recorded” adds a separate entry of the source.

Tests used:
CYP2D6 = CYP2D6 (Homo sapiens, UniProt P10635); assay: in vitro; settings: microsomes
D5 = D5 (Homo sapiens, UniProt P21918); assay: PDSP binding assay; settings: 10 μM, quadruplicate, cloned target
SERT = SERT (Homo sapiens, UniProt P31645); assay: PDSP binding assay; settings: 10 μM, quadruplicate, cloned target
CRFBP-CRF2 complex = molecular target: T1, CRFBP-CRF2 complex (Homo sapiens, UniProt P24387+Q13324); assay: CRFBP-CRF2 Ca2+ assay (FDSS7000; dose-response, Schild analysis); assay type: cell-based; settings: for CRF maximal response with increasing concentrations of compound / Mechanism of antagonism relative to CRF (Schild analysis): 1.11, 3.33, 10 μM compound; for Antagonism of the CRFBP-CRF2 response: dose-response in presence of EC80 CRF
T1 construct: FLAG (N); HA (N); expressed in transfected cells
T1 sequence (P24387+Q13324 with tags, fused parts or gaps): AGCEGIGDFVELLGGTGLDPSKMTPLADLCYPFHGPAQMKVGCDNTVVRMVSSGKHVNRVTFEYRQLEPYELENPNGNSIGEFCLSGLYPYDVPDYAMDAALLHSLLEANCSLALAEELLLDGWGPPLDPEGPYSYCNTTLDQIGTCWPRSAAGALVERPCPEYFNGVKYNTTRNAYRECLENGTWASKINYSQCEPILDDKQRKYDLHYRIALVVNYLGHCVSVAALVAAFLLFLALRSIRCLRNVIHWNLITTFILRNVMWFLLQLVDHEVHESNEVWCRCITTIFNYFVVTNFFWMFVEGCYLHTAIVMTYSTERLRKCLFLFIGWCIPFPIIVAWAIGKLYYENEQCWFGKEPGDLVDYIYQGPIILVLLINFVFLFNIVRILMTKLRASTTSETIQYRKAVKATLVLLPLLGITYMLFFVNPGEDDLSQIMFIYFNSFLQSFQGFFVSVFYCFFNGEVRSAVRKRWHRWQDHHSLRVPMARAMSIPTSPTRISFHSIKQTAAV
Protocol: CRFBP-CRF2 HEK293 cells (1,000 cells/6 μL per well) were plated in 1536-well black walled clear-bottom Poly-D-Lysine coated plates (Corning) in Assay Media (Dulbecco's Modified Eagle Medium (DMEM) (1×), phenol red free, 1% Defined Fetal Bovine Serum (FBS) (Hyclone), 1×Penicillin/Streptomycin (P/S), and 1×L-Glutamine) using a Multidrop Combi (Thermo). Cell plates were spun at 500 rpm for 1 minute in a centrifuge, covered with Kalypsys lids, and incubated overnight at 37° C. in the presence of 5% CO2. The following day, 2 μL per well of FLIPR Calcium 4 Dye (Molecular Devices), prepared in Assay Buffer (1×Hanks' balanced salt solution, 20 mM HEPES, 0.1% Bovine Serum Albumin [Sigma], and 2.5 mM probenecid [Sigma], pH 7.4) was added to each well of the assay plate at 0.5×according to the Manufacturer's Instructions using the Multidrop Combi (Thermo) dispenser and the cells were incubated in dye for 1 hour 37° C. in the presence of 5% CO2. Reagents are from Invitrogen unless otherwise stated.
Calcium flux was measured using a Functional Drug Screening System 7000 (FDSS7000; Hamamatsu, Tokyo, Japan). Baseline readings were taken (9 images at 1 Hz; excitation, 470±20 nm; emission, 540±30 nm), and then test compounds (approximately 53 nL) were added at the 10 second time-point using the FDSS's integrated 1536 well pin-tool from source library plates (Corning) containing 2 mM test compound stocks in 100% DMSO. […] Agonist “Hits” were selected by comparing the amplitude of the responses at the time of test compound addition to the CRF maximal response on each plate.
For confirmation screening, the CRFBP-CRF2 Ca^2+ assay was performed in the identical as the primary screen with the following exceptions. For each test compound, eight assay plates were prepared, each of which received a different concentration of test compound by pin-tool in the FDSS7000 Ca^2+ assay. For the agonist confirmation screening, compounds were tested at 53.0 μM, 26.5 μM, 13.3 μM, 6.63 μM, 3.31 μM, 1.66 μM, 0.828 μM, and 0.414 μM. For the antagonist confirmation screening, compounds were tested at 47.1 μM, 23.6 μM, 11.8 μM, 5.89 μM, 2.94 μM, 1.47 μM, 0.736 μM, and 0.368 μM.

D2 = molecular target: T2, D2 (Homo sapiens, UniProt P14416); assay: PDSP binding assay; settings: 10 μM, quadruplicate, cloned target
T2 construct: NIMH Psychoactive Drug Screening Program (PDSP)
T2 sequence (P14416 whole entry): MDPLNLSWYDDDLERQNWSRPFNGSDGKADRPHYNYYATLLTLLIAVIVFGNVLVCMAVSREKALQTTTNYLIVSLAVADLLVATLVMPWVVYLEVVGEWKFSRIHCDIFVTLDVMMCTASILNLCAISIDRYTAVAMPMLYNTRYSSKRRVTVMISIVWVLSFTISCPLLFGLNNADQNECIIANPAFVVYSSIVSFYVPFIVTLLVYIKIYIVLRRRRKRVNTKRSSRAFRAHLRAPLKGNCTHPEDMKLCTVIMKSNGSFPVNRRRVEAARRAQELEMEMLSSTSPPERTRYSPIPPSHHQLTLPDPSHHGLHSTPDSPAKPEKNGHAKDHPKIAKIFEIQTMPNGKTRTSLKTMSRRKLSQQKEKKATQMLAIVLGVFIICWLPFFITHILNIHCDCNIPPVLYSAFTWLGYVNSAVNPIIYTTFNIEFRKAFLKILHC

M4 = M4 (Homo sapiens, UniProt P08173); assay: PDSP binding assay; settings: 10 μM, quadruplicate, cloned target
Chain of M4 (P08173 whole entry): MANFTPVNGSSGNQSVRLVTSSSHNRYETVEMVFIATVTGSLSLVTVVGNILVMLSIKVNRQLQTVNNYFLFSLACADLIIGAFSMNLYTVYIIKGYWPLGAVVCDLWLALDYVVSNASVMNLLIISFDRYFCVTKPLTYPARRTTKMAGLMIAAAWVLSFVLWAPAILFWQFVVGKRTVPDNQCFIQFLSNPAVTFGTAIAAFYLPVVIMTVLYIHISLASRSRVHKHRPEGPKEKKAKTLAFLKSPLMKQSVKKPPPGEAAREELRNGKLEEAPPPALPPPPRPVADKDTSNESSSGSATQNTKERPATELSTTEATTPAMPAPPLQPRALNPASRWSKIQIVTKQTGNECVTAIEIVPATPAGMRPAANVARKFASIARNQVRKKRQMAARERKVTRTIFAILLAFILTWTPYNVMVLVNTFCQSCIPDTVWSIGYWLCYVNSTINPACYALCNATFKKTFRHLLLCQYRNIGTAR

D4 = D4 (Homo sapiens, UniProt P21917); assay: PDSP binding assay; settings: 10 μM, quadruplicate, cloned target
5-HT1E = molecular target: T3, 5-HT1E (Homo sapiens, UniProt P28566); assay: PDSP binding assay; settings: 10 μM, quadruplicate, cloned target
T3 construct: NIMH Psychoactive Drug Screening Program (PDSP)
T3 sequence (P28566 whole entry, species assumed): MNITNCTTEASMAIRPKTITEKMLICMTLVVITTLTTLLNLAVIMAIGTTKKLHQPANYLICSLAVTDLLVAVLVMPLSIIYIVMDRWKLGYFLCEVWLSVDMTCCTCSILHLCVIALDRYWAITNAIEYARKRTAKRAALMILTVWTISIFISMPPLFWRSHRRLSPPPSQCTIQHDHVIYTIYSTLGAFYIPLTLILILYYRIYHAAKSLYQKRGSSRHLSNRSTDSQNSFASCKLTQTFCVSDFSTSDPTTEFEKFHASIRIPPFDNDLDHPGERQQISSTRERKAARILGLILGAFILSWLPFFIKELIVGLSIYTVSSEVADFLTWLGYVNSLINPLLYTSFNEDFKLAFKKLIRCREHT

Sigma 1 = assay: PDSP binding assay; settings: 10 μM, quadruplicate, cloned target
5-HT2A = molecular target: T4, 5-HT2A (Homo sapiens, UniProt P28223); assay: PDSP binding assay; settings: 10 μM, quadruplicate, cloned target
T4 construct: NIMH Psychoactive Drug Screening Program (PDSP)

[1] = Brain homogenate binding (equilibrium dialysis); assay type: in vitro ADME; settings: rat brain homogenate
From the text: (§1) Both compounds were then profiled for their plasma protein binding (PPB) and brain homogenate binding (BHB) to predict the unbound drug fraction in the plasma and brain respectively.

5-HT2C = molecular target: T5, 5-HT2C (Homo sapiens, UniProt P28335); assay: PDSP binding assay; settings: 10 μM, quadruplicate, cloned target
T5 construct: NIMH Psychoactive Drug Screening Program (PDSP)

Alpha2B = Alpha2B (Homo sapiens, UniProt P18089); assay: PDSP binding assay; settings: 10 μM, quadruplicate, cloned target
Chain of Alpha2B (P18089 whole entry): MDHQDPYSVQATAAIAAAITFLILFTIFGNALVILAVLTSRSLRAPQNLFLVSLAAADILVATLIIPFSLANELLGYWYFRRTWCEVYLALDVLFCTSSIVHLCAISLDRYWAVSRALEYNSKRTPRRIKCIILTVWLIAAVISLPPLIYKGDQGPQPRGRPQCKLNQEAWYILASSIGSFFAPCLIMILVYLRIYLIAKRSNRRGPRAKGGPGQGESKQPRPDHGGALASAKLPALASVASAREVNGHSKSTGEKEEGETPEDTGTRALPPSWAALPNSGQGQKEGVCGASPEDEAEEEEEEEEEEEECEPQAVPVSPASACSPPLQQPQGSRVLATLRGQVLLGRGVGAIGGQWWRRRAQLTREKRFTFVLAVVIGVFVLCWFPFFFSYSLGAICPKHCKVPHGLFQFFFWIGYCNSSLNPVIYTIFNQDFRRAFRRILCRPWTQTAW

[2] = Plasma protein binding (equilibrium dialysis); assay type: in vitro ADME; settings: rat plasma
From the text: as §1

5-HT1D = molecular target: T6, 5-HT1D (Homo sapiens, UniProt P28221); assay: PDSP binding assay; settings: 10 μM, quadruplicate, cloned target
T6 construct: NIMH Psychoactive Drug Screening Program (PDSP)
T6 sequence (P28221 whole entry, species assumed): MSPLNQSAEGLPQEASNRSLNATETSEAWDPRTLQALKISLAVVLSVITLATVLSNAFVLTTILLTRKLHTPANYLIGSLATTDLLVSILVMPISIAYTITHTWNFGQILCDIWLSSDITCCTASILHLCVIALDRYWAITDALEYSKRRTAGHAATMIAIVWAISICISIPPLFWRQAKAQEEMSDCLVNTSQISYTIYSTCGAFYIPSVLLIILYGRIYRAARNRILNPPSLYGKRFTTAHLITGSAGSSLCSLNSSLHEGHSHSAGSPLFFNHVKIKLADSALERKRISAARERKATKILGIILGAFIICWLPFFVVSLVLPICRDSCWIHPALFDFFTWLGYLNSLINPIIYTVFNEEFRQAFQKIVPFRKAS

M5 = M5 (Homo sapiens, UniProt P08912); assay: PDSP binding assay; settings: 10 μM, quadruplicate, cloned target
NET = NET (Homo sapiens, UniProt P23975); assay: PDSP binding assay; settings: 10 μM, quadruplicate, cloned target
Chain of NET (P23975 whole entry): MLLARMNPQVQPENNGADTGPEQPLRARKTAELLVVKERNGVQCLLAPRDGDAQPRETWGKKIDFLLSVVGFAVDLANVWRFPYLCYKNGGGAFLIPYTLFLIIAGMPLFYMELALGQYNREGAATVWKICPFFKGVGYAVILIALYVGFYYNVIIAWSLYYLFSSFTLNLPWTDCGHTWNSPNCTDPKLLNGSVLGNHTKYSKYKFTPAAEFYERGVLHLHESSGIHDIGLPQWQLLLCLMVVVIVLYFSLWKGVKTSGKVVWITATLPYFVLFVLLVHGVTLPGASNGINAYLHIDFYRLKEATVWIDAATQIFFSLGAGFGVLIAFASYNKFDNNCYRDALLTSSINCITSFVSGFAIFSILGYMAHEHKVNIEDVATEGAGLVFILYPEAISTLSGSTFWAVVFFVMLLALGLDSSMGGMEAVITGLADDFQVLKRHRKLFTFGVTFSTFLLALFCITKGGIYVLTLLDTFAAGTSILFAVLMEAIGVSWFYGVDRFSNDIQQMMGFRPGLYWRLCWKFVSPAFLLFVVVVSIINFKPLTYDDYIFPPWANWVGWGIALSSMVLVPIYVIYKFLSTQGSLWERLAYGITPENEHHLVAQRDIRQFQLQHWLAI

D1 = molecular target: T7, D1 (Homo sapiens, UniProt P21728); assay: PDSP binding assay; settings: 10 μM, quadruplicate, cloned target
T7 construct: NIMH Psychoactive Drug Screening Program (PDSP)
T7 sequence (P21728 whole entry): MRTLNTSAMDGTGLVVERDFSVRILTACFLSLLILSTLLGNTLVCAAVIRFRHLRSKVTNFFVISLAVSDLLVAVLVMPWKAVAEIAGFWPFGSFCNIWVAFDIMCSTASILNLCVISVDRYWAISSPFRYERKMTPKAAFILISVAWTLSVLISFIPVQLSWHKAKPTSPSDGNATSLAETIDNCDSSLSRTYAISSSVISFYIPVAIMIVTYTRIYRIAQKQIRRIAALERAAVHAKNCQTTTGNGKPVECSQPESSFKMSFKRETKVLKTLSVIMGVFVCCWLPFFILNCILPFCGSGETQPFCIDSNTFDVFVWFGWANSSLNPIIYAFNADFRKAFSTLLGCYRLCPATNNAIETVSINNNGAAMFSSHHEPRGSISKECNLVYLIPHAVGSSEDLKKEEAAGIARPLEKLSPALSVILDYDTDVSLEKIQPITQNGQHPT

Alpha1A = Alpha1A (Homo sapiens, UniProt P35348); assay: PDSP binding assay; settings: 10 μM, quadruplicate, cloned target
Chain of Alpha1A (P35348 whole entry): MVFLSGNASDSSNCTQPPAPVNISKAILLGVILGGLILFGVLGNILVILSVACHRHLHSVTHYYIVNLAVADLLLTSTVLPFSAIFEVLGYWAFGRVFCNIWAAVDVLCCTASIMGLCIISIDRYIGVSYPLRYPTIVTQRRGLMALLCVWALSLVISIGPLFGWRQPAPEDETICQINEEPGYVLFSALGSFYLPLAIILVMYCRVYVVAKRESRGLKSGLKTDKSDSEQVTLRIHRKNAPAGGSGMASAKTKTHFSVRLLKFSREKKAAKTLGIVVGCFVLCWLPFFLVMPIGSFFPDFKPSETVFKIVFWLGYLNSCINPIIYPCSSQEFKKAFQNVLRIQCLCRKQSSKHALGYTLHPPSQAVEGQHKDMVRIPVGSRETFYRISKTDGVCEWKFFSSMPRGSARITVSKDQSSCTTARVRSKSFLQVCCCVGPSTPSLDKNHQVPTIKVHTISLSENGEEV

D3 = D3 (Homo sapiens, UniProt P35462); assay: PDSP binding assay; settings: 10 μM, quadruplicate, cloned target
5-HT2B = molecular target: T8, 5-HT2B (Homo sapiens, UniProt P41595); assay: PDSP binding assay; settings: 10 μM, quadruplicate, cloned target
T8 construct: NIMH Psychoactive Drug Screening Program (PDSP)
T8 sequence (P41595 whole entry, species assumed): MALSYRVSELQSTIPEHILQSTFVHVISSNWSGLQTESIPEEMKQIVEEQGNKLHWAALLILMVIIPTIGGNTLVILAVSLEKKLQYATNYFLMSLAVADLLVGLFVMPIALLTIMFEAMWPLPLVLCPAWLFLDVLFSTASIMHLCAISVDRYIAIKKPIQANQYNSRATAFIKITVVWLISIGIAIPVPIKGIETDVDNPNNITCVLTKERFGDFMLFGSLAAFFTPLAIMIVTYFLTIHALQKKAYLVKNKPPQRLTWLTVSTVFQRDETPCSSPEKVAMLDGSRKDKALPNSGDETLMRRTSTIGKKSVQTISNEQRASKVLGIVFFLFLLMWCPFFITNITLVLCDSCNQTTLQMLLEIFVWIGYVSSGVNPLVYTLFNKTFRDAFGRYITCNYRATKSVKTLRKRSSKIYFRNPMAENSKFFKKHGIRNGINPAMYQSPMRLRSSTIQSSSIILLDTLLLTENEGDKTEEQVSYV

Sigma 2 = assay: PDSP binding assay; settings: 10 μM, quadruplicate, cloned target

Chain of CYP2D6 (P10635 whole entry): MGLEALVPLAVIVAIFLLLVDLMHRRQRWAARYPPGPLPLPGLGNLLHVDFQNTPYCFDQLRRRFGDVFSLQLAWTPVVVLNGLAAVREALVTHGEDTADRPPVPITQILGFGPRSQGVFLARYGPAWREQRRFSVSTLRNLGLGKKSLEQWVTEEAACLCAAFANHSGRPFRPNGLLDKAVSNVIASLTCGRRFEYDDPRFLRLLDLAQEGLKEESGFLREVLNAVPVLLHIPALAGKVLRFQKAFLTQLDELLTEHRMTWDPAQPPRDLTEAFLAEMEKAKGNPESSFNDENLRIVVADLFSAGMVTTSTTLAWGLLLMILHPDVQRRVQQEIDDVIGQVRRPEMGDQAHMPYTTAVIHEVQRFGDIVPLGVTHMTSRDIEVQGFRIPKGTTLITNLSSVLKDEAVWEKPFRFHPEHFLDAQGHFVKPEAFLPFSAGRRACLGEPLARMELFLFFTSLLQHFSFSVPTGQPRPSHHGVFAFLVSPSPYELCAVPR

Row | Compound | inhibition at 10 µM (CYP2D6) [%] | Activity at D5 (binding assay) (D5) [%] | Activity at SERT (binding assay) (SERT) [%] | CRF maximal response with increasing concentrations of compound (CRFBP-CRF2 complex) | Mechanism of antagonism relative to CRF (Schild analysis) (CRFBP-CRF2 complex) | Antagonism of the CRFBP-CRF2 response (CRFBP-CRF2 complex) | Activity at D2 (binding assay) (D2) [%] | Activity at M4 (binding assay) (M4) [%] | Activity at D4 (binding assay) (D4) [%] | Activity at 5-HT1E (binding assay) (5-HT1E) [%] | Activity at Sigma 1 (binding assay) (Sigma 1) [%] | Activity at 5-HT2A (binding assay) (5-HT2A) [%] | Brain homogenate binding, free [1] [% free] | Activity at 5-HT2C (binding assay) (5-HT2C) [%] | Activity at Alpha2B (binding assay) (Alpha2B) [%] | Plasma protein binding, free [2] [% free] | Activity at 5-HT1D (binding assay) (5-HT1D) [%] | Activity at M5 (binding assay) (M5) [%] | Activity at NET (binding assay) (NET) [%] | Activity at D1 (binding assay) (D1) [%] | also measured
1 | Brc1ccccc1-c1nnc(CSc2nnnn2-c2ccccc2)o1 [MLS-0046818] | -128 | 12 | −14 | decreased | noncompetitively antagonize CRF responses | only inhibit the CRFBP-CRF2 response | −13 | −12 | −42 | 16 | 8 | 5 | 2.3 | 19 | 2 | 4.6 | −5 | −6 | 8 | −1 | Mechanism of antagonism relative to CRF (Schild analysis) (CRFBP-CRF2 complex; listed as MLS-0046181): noncompetitive interaction; Activity at Alpha1A (binding assay) (Alpha1A): 10%; Activity at D3 (binding assay) (D3): −11%; Activity at 5-HT2B (binding assay) (5-HT2B): 67%; Activity at Sigma 2 (binding assay) (Sigma 2): −7%
2 | CC(C)Cn1c(SCC(=O)N2CCc3ccccc3C2)nc2cc(Cl)ccc2c1=O [MLS-0219419] | -21 | −15 | −14 | decreased | noncompetitive interaction; also recorded: noncompetitively antagonize CRF responses | only inhibit the CRFBP-CRF2 response | −5 | −6 | −60 | 11 | 7 | −1 | 0.0 | −7 | 0 | 0.1 | −5 | −2 | 12 | 1 | Activity at Alpha1A (binding assay) (Alpha1A): −15%; Activity at D3 (binding assay) (D3): −6%; Activity at 5-HT2B (binding assay) (5-HT2B): 2%; Activity at Sigma 2 (binding assay) (Sigma 2): 9%
